Structures are written as SMILES. pIC50: −log10 of the molar value. “And” between values parts separate entries of the source, which are not always exact repeats. Identical values can stand only once.

Test [1] deals with NA enzyme activity of influenza A(H1N1) viruses. It is filed as biochemical, influenza A(H1N1) virus. To be noted: read-out: IC50-values of outliers with reduced zanamivir susceptibility.
Test [2] has as its system influenza A(H1N1) viruses. To be noted: cited from earlier work.

Consider `CC(=O)N[C@H]1[C@H]([C@H](O)[C@H](O)CO)OC(C(=O)O)=C[C@@H]1N=C(N)N` [zanamivir], for which, in test [1], the pIC50 was 8.51 and 8.47 and 8.28. For the molecule `CCOC(=O)C1=C[C@@H](OC(CC)CC)[C@H](NC(C)=O)[C@@H](N)C1` [oseltamivir], in test [2], the “average prevalence of ORV in Europe” value was 20.1%.

Source of the values: article PMC3249654 (The Open Virology Journal, 2011).
